Measurements: patent US20240336594A1, “SIX-MEMBERED ARYL OR HETEROARYL AMIDES, AND COMPOSITION AND USE THEREOF” (BETTA PHARMACEUTICALS CO., LTD, priority 2021, published 2024)

What was measured:
MALT1 = target: T1, MALT1 (Homo sapiens, UniProt Q9UDY8); assay: MALT1 protease inhibition assay (AMC-labeled peptide, fluorescence 360/460); format: biochemical; conditions: substrate Ac-LRSR-AMC, 15 min preincubation, 90 min at 25° C.
T1 sequence (Q9UDY8 1-824): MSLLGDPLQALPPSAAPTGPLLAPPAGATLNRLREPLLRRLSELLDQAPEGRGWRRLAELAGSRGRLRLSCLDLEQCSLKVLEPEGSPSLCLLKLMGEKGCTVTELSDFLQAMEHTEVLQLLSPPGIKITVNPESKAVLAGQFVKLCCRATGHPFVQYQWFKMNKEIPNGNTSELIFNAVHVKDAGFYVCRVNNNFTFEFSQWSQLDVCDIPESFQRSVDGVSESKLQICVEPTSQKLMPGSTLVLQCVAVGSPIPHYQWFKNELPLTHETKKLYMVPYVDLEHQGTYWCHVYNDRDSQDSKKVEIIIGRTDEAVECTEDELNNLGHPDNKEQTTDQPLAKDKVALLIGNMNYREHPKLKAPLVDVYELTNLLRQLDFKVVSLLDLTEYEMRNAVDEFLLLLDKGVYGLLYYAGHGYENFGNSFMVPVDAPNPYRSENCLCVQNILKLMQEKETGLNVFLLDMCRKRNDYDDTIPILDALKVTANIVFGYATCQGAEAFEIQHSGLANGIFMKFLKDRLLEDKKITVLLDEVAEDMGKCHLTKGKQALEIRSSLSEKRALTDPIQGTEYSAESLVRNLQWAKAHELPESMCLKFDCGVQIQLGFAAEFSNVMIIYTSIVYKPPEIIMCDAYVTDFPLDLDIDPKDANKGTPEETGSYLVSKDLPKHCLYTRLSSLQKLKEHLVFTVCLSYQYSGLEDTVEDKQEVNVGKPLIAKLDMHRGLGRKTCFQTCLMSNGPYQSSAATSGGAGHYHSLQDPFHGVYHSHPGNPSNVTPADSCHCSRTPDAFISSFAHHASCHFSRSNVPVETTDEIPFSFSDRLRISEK
Summary of the method: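 Fluorogenic AMC-peptide cleavage read after 90 min at 25 °C, following a 15 min enzyme–compound preincubation at 25 °C in citrate protease buffer plus DTT. Compounds run as ten 3-fold dilutions in duplicate; percent inhibition relative to enzyme-only and enzyme-free controls, fitted to IC50.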

[1] = system: IL-2 secretion of Jurkat cells (PMA/Ionomycin inducing); assay: ELISA method to detect IL-2 secretion induced by PMA/Ionomycin; format: cell-based; conditions: Homo sapiens, 20 h
Procedure: 12.5*10^3 Jurkat cells were seeded on a 96-well plate and incubated with various concentrations of compound solution for 30 min. Then, 500×PMA/Ionomycin stimulating factor was diluted with culture medium and added to the cell plate. […] The final concentrations of the compounds were 10000, 3333.3, 1111.1, 370.4, 123.5, 41.2, 13.7, 4.6, 1.5, 0 nM (The final concentration of DMSO is 0.5%). After incubation for 20 h, the supernatant was collected via centrifugation. The final IL-2 concentration was detected by ELISA method (IL-2 Duoset, R&D Systems, DY202). The signal value of each sample at a wavelength of 450 nm was collected by EnVision multifunctional microplate reader and converted to the IL-2 concentration via the ELISACalc.exe software. The IL-2 secretion inhibitory activity IC50 was fitted by GraphPad Prism software. The cell viability was tested simultaneously using the Cell-Titer Glo kit.
The compounds of the present invention show strong inhibitory effect on IL-2 secretion of Jurkat cells (PMA/Ionomycin inducing).

IC50 (MALT1) | IC50 [1] | SMILES
≤ 10 nM | 94 nM | Nc1ccccc1-c1cc(Cl)c(C(=O)Nc2cnc(-n3nccn3)c(Cl)c2)cc1F [Example A109, 2′-amino-5-chloro-N-(5-chloro-6-(2H-1,2,3-triazol-2-yl)pyridin-3-yl)-2-fluoro-[1,1′-biphenyl]-4-carboxamide]
≤ 10 nM | 35 nM | Cc1cc(-c2ccc(F)cc2N)c(F)cc1C(=O)Nc1cnc(-n2nccn2)c(Cl)c1 [Example A113]
≤ 10 nM | 17 nM | C#Cc1cncc(N)c1-c1cc(Cl)c(C(=O)Nc2cnc(-n3nccn3)c(Cl)c2)cc1F [Example A411, 4-(3-amino-5-ethynylpyridin-4-yl)-2-chloro-N-(5-chloro-5-(2H-1,2,3-triazol-2-yl)pyridin-3-yl)-5-fluorobenzamide]
≤ 10 nM | 113 nM | C#Cc1cncc(N)c1-c1cc(Cl)c(C(=O)Nc2cnc(C(=O)NCC(F)(F)F)c(Cl)c2)cc1F [Example A470, 5-(4-(3-amino-5-ethynylpyridin-4-yl)-2-chloro-5-fluorobenzamido)-3-chloro-N-(2,2,2-trifluoroethyl)picolinamide]
≤ 10 nM | 121 nM | Nc1cc(F)ccc1-c1cc(Cl)c(C(=O)Nc2cnc(-n3nccn3)c(C(F)(F)F)c2)cc1F [Example A122, N-(6-(2H-1,2,3-triazol-2-yl)-5-(trifluoromethyl)pyridin-3-yl)-2′-amino-5-chloro-2,4′-difluoro-[1,1′-biphenyl]-4-carboxamide]
≤ 10 nM | 58 nM | Nc1cc(F)ccc1-c1cc(F)c(C(=O)Nc2cnc(-n3nccn3)c(C(F)(F)F)c2)cc1Cl [Example A123, N-(6-(2H-1,2,3-triazol-2-yl)-5-(trifluoromethyl)pyridin-3-yl)-2′-amino-2-chloro-4′,5-difluoro-[1,1′-biphenyl]-4-carboxamide]
≤ 10 nM | 444 nM | CNc1cc(F)ccc1-c1cc(F)c(C(=O)Nc2cnc(-n3nccn3)c(Cl)c2)cc1Cl [Example A127, 2-chloro-N-(5-chloro-6-(2H-1,2,3-triazol-2-yl)pyridin-3-yl)-4′,5-difluoro-2′-(methylamino)-[1,1′-biphenyl]-4-carboxamide]
≤ 10 nM | 186 nM | Nc1ccccc1-c1cc(F)c(C(=O)Nc2cnc(-n3nccn3)c(C(F)(F)F)c2)cc1Cl [Example A110]
≤ 10 nM | 76 nM | Nc1cncc(C2CC2)c1-c1cc(Cl)c(C(=O)Nc2cnc(-n3nccn3)c(Cl)c2)cc1F [Example A506, 4-(3-amino-5-cyclopropylpyridin-4-yl)-2-chloro-N-(5-chloro-6-(2H-1,2,3-triazol-2-yl)pyridin-3-yl)-5-fluorobenzamide]
≤ 10 nM | 34 nM | Cc1cc(-c2ccc(F)cc2Br)c(F)cc1C(=O)Nc1cnc(-n2nccn2)c(Cl)c1 [Example A114]
≤ 10 nM | 466 nM | Nc1ccccc1-c1cc(F)c(C(=O)Nc2cnc(-n3nccn3)c(Cl)c2)cc1Cl [Example A119, 2′-amino-2-chloro-N-(5-chloro-6-(2H-1,2,3-triazol-2-yl)pyridin-3-yl)-5-fluoro-[1,1′-biphenyl]-4-carboxamide]
≤ 10 nM | 164 nM | C#Cc1cnccc1-c1cc(Cl)c(C(=O)Nc2cnc(C(=O)NCC)c(Cl)c2)cc1F [Example A428, 3-chloro-5-(2-chloro-4-(3-ethynylpyridin-4-yl)-5-fluorobenzamido)-N-ethylpicolinamide]
≤ 10 nM | 77 nM | C#Cc1cnccc1-c1cc(Cl)c(C(=O)Nc2cnc(C(=O)NCC#N)c(Cl)c2)cc1F [Example A427, 3-chloro-5-(2-chloro-4-(3-ethynylpyridin-4-yl)-5-fluorobenzamido)-N-(cyanomethyl)picolinamide]
≤ 10 nM | 66 nM | C#Cc1cncc(N)c1-c1cc(Cl)c(C(=O)Nc2cnc(-n3nccn3)c(C(F)(F)F)c2)cc1F [Example A410, N-(6-(2H-1,2,3-triazol-2-yl)-5-(trifluoromethyl)pyridin-3-yl)-4-(3-amino-5-ethynylpyridin-4-yl)-2-chloro-5-fluorobenzamide]
≤ 10 nM | 77 nM | O=C(Nc1cnc(-n2nccn2)c(Cl)c1)c1cc(F)c(-c2ccc(F)cc2CO)cc1Cl [Example A281]
≤ 10 nM | 54 nM | Cc1cc(-c2ccc(F)cc2F)c(F)cc1C(=O)Nc1cnc(-n2nccn2)c(Cl)c1 [Example A116, N-(5-chloro-6-(2H-1,2,3-triazol-2-yl)pyridin-3-yl)-2,2′,4′-trifluoro-5-methyl-[1,1′-biphenyl]-4-carboxamide]
